In patent publication US10239832B2, “N-(1-hydroxy-3-(pyrrolidinyl)propan-2-yl)pyrrolidine-3-carboxamide derivatives as glucosylceramide synthase inhibitors” (BIOMARIN PHARMACEUTICAL INC., priority 2013, dated 2019):

Biological target: T1, GCS (Canis lupus familiaris, UniProt A0A8I3MXG6)
T1 construct: endogenous in cells; host or cells: MDCK (Madin-Darby canine kidney) cells, whole-cell lysate
T1 sequence (A0A8I3MXG6 1-394): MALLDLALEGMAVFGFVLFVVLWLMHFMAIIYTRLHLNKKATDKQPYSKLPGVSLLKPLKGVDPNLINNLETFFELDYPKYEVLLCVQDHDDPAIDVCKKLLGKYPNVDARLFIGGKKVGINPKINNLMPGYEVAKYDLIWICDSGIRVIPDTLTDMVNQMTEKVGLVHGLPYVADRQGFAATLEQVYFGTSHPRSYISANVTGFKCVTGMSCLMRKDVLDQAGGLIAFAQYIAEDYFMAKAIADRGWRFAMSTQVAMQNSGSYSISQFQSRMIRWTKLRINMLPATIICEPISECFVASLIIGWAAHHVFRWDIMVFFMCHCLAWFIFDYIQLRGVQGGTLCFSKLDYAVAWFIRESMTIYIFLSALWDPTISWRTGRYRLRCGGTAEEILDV
Assay: GCS enzymatic assay (MDCK cell lysate, NBD-ceramide to glucosylceramide, LC/MS)
Format: biochemical, canine
Conditions: Table 2, the table does not say which of the assays; for IC50: class symbols A, B, C, read-out: Data Range (IC50 values); for Data Range (% inhibition): class symbols D, E, F, NA (not active)
In short: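 IC50 or percent inhibition came from LC/MS/MS (ESI+, MRM) of NBD-ceramide and glucosylceramide, with tolbutamide as internal standard. The reaction used MDCK (canine) cell lysate as the enzyme source and was ended with acetonitrile. Mock wells received 0.1% DMSO.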

Row | Structure (SMILES) | IC50 | Data Range (% inhibition)
1 | O=C(N[C@H](CN1CCCC1)[C@H](O)c1ccc(OC2CCOCC2)c(Cl)c1)[C@@H]1CCN(c2ccc3cc(F)ccc3c2)C1 [Compound 50, (R)-N-((1R,2R)-1-(3-chloro-4-((tetrahydro-2H-pyran-4-yl)oxy)phenyl)-1-hydroxy-3-(pyrrolidin-1-yl)propan-2-yl)-1-(6-fluoronaphthalen-2-yl)pyrrolidine-3-carboxamide] | 1 to 30 nM | 
2 | O=C(N[C@H](CN1CCCC1)[C@H](O)c1ccc(OC2CCOCC2)c(Cl)c1)[C@H]1CCN(c2ccc3cc(F)ccc3c2)C1 [Compound 50A, (S)-N-((1R,2R)-1-(3-chloro-4-((tetrahydro-2H-pyran-4-yl)oxy)phenyl)-1-hydroxy-3-(pyrrolidin-1-yl)propan-2-yl)-1-(6-fluoronaphthalen-2-yl)pyrrolidine-3-carboxamide] |  | E (50-74% (or less than 75%))
3 | CC1(C)CCc2cc([C@@H](O)[C@@H](CN3CCCC3)NC(=O)[C@@H]3CCN(c4ccc(Cl)cc4)C3)ccc2O1 [Compound 51, (R)-1-(4-chlorophenyl)-N-((1R,2R)-1-(2,2-dimethylchroman-6-yl)-1-hydroxy-3-(pyrrolidin-1-yl)propan-2-yl)pyrrolidine-3-carboxamide] |  | F (1-49% (or less than 50%))
4 | CC1(C)CCc2cc([C@@H](O)[C@@H](CN3CCCC3)NC(=O)[C@H]3CCN(c4ccc(Cl)cc4)C3)ccc2O1 [Compound 51A, (S)-1-(4-chlorophenyl)-N-((1R,2R)-1-(2,2-dimethylchroman-6-yl)-1-hydroxy-3-(pyrrolidin-1-yl)propan-2-yl)pyrrolidine-3-carboxamide] |  | NA (not active—a negative value was generated for % inhibition)
5 | O=C(N[C@H](CN1CCCC1)[C@H](O)c1cc(F)c2c(c1)OCCO2)[C@@H]1CCN(c2ccc3cc(F)ccc3c2)C1 [Compound 52, (R)-N-((1R,2R)-1-(8-fluoro-2,3-dihydrobenzo[b][1,4]dioxin-6-yl)-1-hydroxy-3-(pyrrolidin-1-yl)propan-2-yl)-1-(6-fluoronaphthalen-2-yl)pyrrolidine-3-carboxamide] | 1 to 30 nM | 
6 | O=C(N[C@H](CN1CCCC1)[C@H](O)c1cc(F)c2c(c1)OCCO2)[C@H]1CCN(c2ccc3cc(F)ccc3c2)C1 [Compound 52A, (S)-N-((1R,2R)-1-(8-fluoro-2,3-dihydrobenzo[b][1,4]dioxin-6-yl)-1-hydroxy-3-(pyrrolidin-1-yl)propan-2-yl)-1-(6-fluoronaphthalen-2-yl)pyrrolidine-3-carboxamide] |  | E (50-74% (or less than 75%))
7 | O=C(N[C@H](CN1CCCC1)[C@H](O)c1ccc2c(c1)OCCO2)[C@@H]1CCN(c2ccc3ccsc3c2)C1 [Compound 53, (R)-1-(benzo[b]thiophen-6-yl)-N-((1R,2R)-1-(2,3-dihydrobenzo[b][1,4]dioxin-6-yl)-1-hydroxy-3-(pyrrolidin-1-yl)propan-2-yl)pyrrolidine-3-carboxamide] |  | E (50-74% (or less than 75%))
8 | O=C(N[C@H](CN1CCCC1)[C@H](O)c1ccc2c(c1)OCCO2)C1CCN(c2ccc3ccsc3c2)C1 (stereo partly drawn) [Compound 53C, 1-(benzo[b]thiophen-6-yl)-N-((1R,2R)-1-(2,3-dihydrobenzo[b][1,4]dioxin-6-yl)-1-hydroxy-3-(pyrrolidin-1-yl)propan-2-yl)pyrrolidine-3-carboxamide] | 30 to 100 nM | 
9 | O=C(N[C@H](CN1CCCC1)[C@H](O)c1ccc2c(c1)OCCO2)[C@H]1CCN(c2ccc3ccsc3c2)C1 [Compound 53D, (S)-1-(benzo[b]thiophen-6-yl)-N-((1R,2R)-1-(2,3-dihydrobenzo[b][1,4]dioxin-6-yl)-1-hydroxy-3-(pyrrolidin-1-yl)propan-2-yl)pyrrolidine-3-carboxamide] | 1 to 30 nM | 
10 | O=C(N[C@H](CN1CCCC1)[C@H](O)c1ccc(OC2CC2)c(Cl)c1)[C@@H]1CCN(c2ccccn2)C1 [Compound 54, (R)-N-((1R,2R)-1-(3-chloro-4-cyclopropoxyphenyl)-1-hydroxy-3-(pyrrolidin-1-yl)propan-2-yl)-1-(pyridin-2-yl)pyrrolidine-3-carboxamide] | 1 to 30 nM | 
11 | O=C(N[C@H](CN1CCCC1)[C@H](O)c1ccc(OC2CC2)c(Cl)c1)[C@H]1CCN(c2ccccn2)C1 [Compound 54A, (S)-N-((1R,2R)-1-(3-chloro-4-cyclopropoxyphenyl)-1-hydroxy-3-(pyrrolidin-1-yl)propan-2-yl)-1-(pyridin-2-yl)pyrrolidine-3-carboxamide] |  | F (1-49% (or less than 50%))
12 | O=C(N[C@H](CN1CCCC1)[C@H](O)c1ccc2c(c1)OCCO2)[C@@H]1CCN(C2Cc3ccccc3C2)C1 [Compound 55, (R)-1-(2,3-dihydro-1H-inden-2-yl)-N-((1R,2R)-1-(2,3-dihydrobenzo[b][1,4]dioxin-6-yl)-1-hydroxy-3-(pyrrolidin-1-yl)propan-2-yl)pyrrolidine-3-carboxamide] |  | F (1-49% (or less than 50%))
13 | O=C(N[C@H](CN1CCCC1)[C@H](O)c1ccc2c(c1)OCCO2)C1CCN(C2Cc3ccccc3C2)C1 (stereo partly drawn) [Compound 55A, 1-(2,3-dihydro-1H-inden-2-yl)-N-((1R,2R)-1-(2,3-dihydrobenzo[b][1,4]dioxin-6-yl)-1-hydroxy-3-(pyrrolidin-1-yl)propan-2-yl)pyrrolidine-3-carboxamide] |  | F (1-49% (or less than 50%))
14 | O=C(N[C@H](CN1CCCC1)[C@H](O)c1ccc2c(c1)OCCO2)[C@H]1CCN(C2Cc3ccccc3C2)C1 [Compound 55B, (S)-1-(2,3-dihydro-1H-inden-2-yl)-N-((1R,2R)-1-(2,3-dihydrobenzo[b][1,4]dioxin-6-yl)-1-hydroxy-3-(pyrrolidin-1-yl)propan-2-yl)pyrrolidine-3-carboxamide] |  | F (1-49% (or less than 50%))
15 | O=C(N[C@H](CN1CCCC1)[C@H](O)c1ccc2c(c1)OCCO2)[C@@H]1CCN(c2ccnc(OC3CC3)c2)C1 [Compound 56, (R)-1-(2-cyclopropoxypyridin-4-yl)-N-((1R,2R)-1-(2,3-dihydrobenzo[b][1,4]dioxin-6-yl)-1-hydroxy-3-(pyrrolidin-1-yl)propan-2-yl)pyrrolidine-3-carboxamide] |  | F (1-49% (or less than 50%))
16 | O=C(N[C@H](CN1CCCC1)[C@H](O)c1ccc2c(c1)OCCO2)C1CCN(c2ccnc(OC3CC3)c2)C1 (stereo partly drawn) [Compound 56D, 1-(2-cyclopropoxypyridin-4-yl)-N-((1R,2R)-1-(2,3-dihydrobenzo[b][1,4]dioxin-6-yl)-1-hydroxy-3-(pyrrolidin-1-yl)propan-2-yl)pyrrolidine-3-carboxamide] |  | F (1-49% (or less than 50%))
17 | O=C(N[C@H](CN1CCCC1)[C@H](O)c1ccc2c(c1)OCCO2)[C@H]1CCN(c2ccnc(OC3CC3)c2)C1 [Compound 56E, (S)-1-(2-cyclopropoxypyridin-4-yl)-N-((1R,2R)-1-(2,3-dihydrobenzo[b][1,4]dioxin-6-yl)-1-hydroxy-3-(pyrrolidin-1-yl)propan-2-yl)pyrrolidine-3-carboxamide] |  | F (1-49% (or less than 50%))
18 | O=C(N[C@H](CN1CCCC1)[C@H](O)c1ccc(OC2CC2)c(Cl)c1)[C@@H]1CCN(c2ccc(Cl)cn2)C1 [Compound 57, (R)-N-((1R,2R)-1-(3-chloro-4-cyclopropoxyphenyl)-1-hydroxy-3-(pyrrolidin-1-yl)propan-2-yl)-1-(5-chloropyridin-2-yl)pyrrolidine-3-carboxamide] |  | F (1-49% (or less than 50%))
19 | O=C(N[C@H](CN1CCCC1)[C@H](O)c1ccc(OC2CC2)c(Cl)c1)[C@H]1CCN(c2ccc(Cl)cn2)C1 [Compound 57A, (S)-N-((1R,2R)-1-(3-chloro-4-cyclopropoxyphenyl)-1-hydroxy-3-(pyrrolidin-1-yl)propan-2-yl)-1-(5-chloropyridin-2-yl)pyrrolidine-3-carboxamide] | 1 to 30 nM | 
20 | O=C(N[C@H](CN1CCCC1)[C@H](O)c1ccc2c(c1)OCCO2)[C@@H]1CCN(c2ccc(OC3CC3)nc2)C1 [Compound 58, (R)-1-(6-cyclopropoxypyridin-3-yl)-N-((1R,2R)-1-(2,3-dihydrobenzo[b][1,4]dioxin-6-yl)-1-hydroxy-3-(pyrrolidin-1-yl)propan-2-yl)pyrrolidine-3-carboxamide] |  | E (50-74% (or less than 75%))
21 | O=C(N[C@H](CN1CCCC1)[C@H](O)c1ccc2c(c1)OCCO2)[C@H]1CCN(c2ccc(OC3CC3)nc2)C1 [Compound 58D, (S)-1-(6-cyclopropoxypyridin-3-yl)-N-((1R,2R)-1-(2,3-dihydrobenzo[b][1,4]dioxin-6-yl)-1-hydroxy-3-(pyrrolidin-1-yl)propan-2-yl)pyrrolidine-3-carboxamide] |  | F (1-49% (or less than 50%))
22 | O=C(N[C@H](CN1CCCC1)[C@H](O)c1ccc(OC2COC2)c(Cl)c1)[C@@H]1CCN(c2ccc(Cl)cc2)C1 [Compound 59, (R)-N-((1R,2R)-1-(3-chloro-4-(oxetan-3-yloxy)phenyl)-1-hydroxy-3-(pyrrolidin-1-yl)propan-2-yl)-1-(4-chlorophenyl)pyrrolidine-3-carboxamide] |  | F (1-49% (or less than 50%))
